Laboratory results taken from PubChem BioAssay AID1963874 (Molecular Pharmacology Branch, DTP, NCI, 2024).

Test system: 253994-281-T-J1-PDC KRAS-mutant spheroids with HUVEC/MSC, viability
Assay: Anticancer human tumor 253994-281-T-J1-PDC patient-derived colorectal carcinoma cell line growth inhibition [KRAS2]
Details: for viability, T/C: stronger effect = lower value
Method in brief: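 KRAS-mutant tumor cells were grown as spheroids with HUVEC endothelial cells and human MSCs as stroma. Targeted agents were tested alone and with KRAS pathway inhibitors. Doses started at or near clinical Cmax, or 10 microM, descending half-log.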
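Also: spheroids exposed to agents for seven days before readout.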
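For viability, T/C in this document: percent of DMSO vehicle control viability.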

## Cn1ncnc1[C@H]1c2n[nH]c(=O)c3cc(F)cc(c23)N[C@@H]1c1ccc(F)cc1
Compound 0.000316 µM
  viability, T/C: 101% [middle of 5 runs]
Compound 0.001 µM
  viability, T/C: 99.4% [middle of 5 runs]
Compound 0.01 µM
  viability, T/C: 99.2% [middle of 5 runs]
Compound 0.0316 µM
  viability, T/C: 102% [middle of 5 runs]
Curve of compound
  IC50: > 100 nM
